Test results from patent US20240158446A1, “CYCLIC COMPOUND HAVING SELECTIVE INHIBITORY ACTION ON KRAS OVER HRAS AND NRAS” (CHUGAI SEIYAKU KABUSHIKI KAISHA, priority 2021, published 2024).

Key:
[1] = target: GDP-bound NRAS wild-type protein (Homo sapiens, UniProt P01111); assay: Binding to NRAS by surface plasmon resonance (SPR), Single Cycle Kinetics; details: SPR KD ratio NRAS/KRAS, class symbols
[2] = target: GDP-bound HRAS wild-type protein (Homo sapiens, UniProt P01112); assay: Binding to HRAS by surface plasmon resonance (SPR), Single Cycle Kinetics; details: SPR KD ratio HRAS/KRAS, class symbols
GDP-bound HRAS wild-type protein, sequence (P01112 whole entry): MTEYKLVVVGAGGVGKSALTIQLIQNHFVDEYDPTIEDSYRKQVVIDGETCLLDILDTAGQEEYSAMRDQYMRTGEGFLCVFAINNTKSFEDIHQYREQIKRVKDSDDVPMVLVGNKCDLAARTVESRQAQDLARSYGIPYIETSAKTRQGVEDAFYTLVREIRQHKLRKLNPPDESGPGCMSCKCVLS

GDP-bound NRAS wild-type protein, sequence (P01111 whole entry): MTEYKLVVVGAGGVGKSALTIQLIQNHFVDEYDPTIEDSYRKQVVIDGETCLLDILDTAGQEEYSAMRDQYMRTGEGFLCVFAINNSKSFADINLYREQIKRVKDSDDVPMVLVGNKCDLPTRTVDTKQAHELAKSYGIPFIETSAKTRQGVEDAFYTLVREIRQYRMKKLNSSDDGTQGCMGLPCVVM

| SMILES | NRAS/KRAS (ratio of KD value with respect to GDP-bound NRAS wild-type protein to KD value with respect to KRAS) [1] | HRAS/KRAS (ratio of KD value with respect to GDP-bound HRAS wild-type protein to KD value with respect to KRAS) [2] |
| --- | --- | --- |
| CCO[C@@H]1C[C@H]2C(=O)NC3(CCC3)C(=O)N(C)[C@@H](C(CC)CC)C(=O)N(C)[C@H](C(=O)N(C)C)CC(=O)N(C)[C@H]3CCCC/C=C/c4ccc(cc4)C[C@@H](C(=O)N(C)CC(=O)N[C@@H](CCc4ccc(Cl)c(Cl)c4)C(=O)N2C1)N1CC/C=C\C[C@@H](C1=O)N(C)C(=O)CN(C1CC1)C(=O)[C@H]([C@@H](C)CC)NC3=O [PP2605] | AA (a compound having 20 or more is denoted as AA) | A (a compound having 10 or more and less than 20 is denoted as A) |
| CCO[C@@H]1C[C@H]2C(=O)NC3(CCC3)C(=O)N(C)[C@@H](C3CCCC3)C(=O)N(C)[C@H](C(=O)N(C)C)CC(=O)N(C)[C@@H](CC3CCCC3)C(=O)N[C@@H]([C@@H](C)CC)C(=O)N(C)CC(=O)N(C)[C@H]3C/C=C\CCN(C3=O)[C@@H](Cc3ccc(C)cc3)C(=O)N(C)CC(=O)N[C@@H](CCc3ccc(C(F)(F)F)c(CC)c3)C(=O)N2C1 [PP2672] | B (a compound having 3 or more and less than 10 is denoted as B) | B (a compound having 3 or more and less than 10 is denoted as B) |
| CCO[C@@H]1C[C@H]2C(=O)NC3(CCC3)C(=O)N(C)[C@@H](C3CCCC3)C(=O)N(C)[C@H](C(=O)N(C)C)CC(=O)N(C)[C@@H](CC3CCCC3)C(=O)N[C@@H]([C@@H](C)CC)C(=O)N(C)CC(=O)N(C)[C@H]3C/C=C\CCN(C3=O)[C@@H](Cc3ccc(C)cc3)C(=O)N(C)CC(=O)N[C@@H](CCc3ccc(C4CC4)c(Cl)c3)C(=O)N2C1 [PP2684] | A (a compound having 10 or more and less than 20 is denoted as A) | A (a compound having 10 or more and less than 20 is denoted as A) |
| CCO[C@@H]1C[C@H]2C(=O)NC3(CCC3)C(=O)N(C)[C@@H](C3CCCC3)C(=O)N(C)[C@H](C(=O)N(C)C)CC(=O)N(C)[C@@H](CC3CCCC3)C(=O)N[C@@H]([C@@H](C)CC)C(=O)N(C)CC(=O)N(C)[C@H]3C/C=C\CCN(C3=O)[C@@H](Cc3ccc(C)cc3)C(=O)N(C)CC(=O)N[C@@H](CCc3ccc(CC)c(F)c3)C(=O)N2C1 [PP2686] | A (a compound having 10 or more and less than 20 is denoted as A) | A (a compound having 10 or more and less than 20 is denoted as A) |
| CCO[C@@H]1C[C@H]2C(=O)NC3(CC(C)(C)C3)C(=O)N(C)[C@@H](C3CCCC3)C(=O)N(C)[C@H](C(=O)N(C)C)CC(=O)N(C)[C@@H](CC(C)C)C(=O)N[C@@H]([C@@H](C)CC)C(=O)N(C)CC(=O)N(C)[C@H]3C/C=C\CCN(C3=O)[C@@H](Cc3ccc(C)cc3F)C(=O)N(C)CC(=O)N[C@@H](CCc3ccc(C(F)(F)F)c(OC)c3)C(=O)N2C1 [PP2688] | A (a compound having 10 or more and less than 20 is denoted as A) | B (a compound having 3 or more and less than 10 is denoted as B) |
| CCO[C@@H]1C[C@H]2C(=O)NC3(CC(C)(C)C3)C(=O)N(C)[C@@H](C3CCCC3)C(=O)N(C)[C@H](C(=O)N(C)C)CC(=O)N(C)[C@@H](CC(C)C)C(=O)N[C@@H]([C@@H](C)CC)C(=O)N(C)CC(=O)N(C)[C@H]3C/C=C\CCN(C3=O)[C@@H](Cc3ccc(C4CC4)cc3)C(=O)N(C)CC(=O)N[C@@H](CCc3ccc(C(F)(F)F)c(OC)c3)C(=O)N2C1 [PP2691, (2S,8S,12R,14S,20S,23S,27S,30S,36S,38Z)-20-cyclopentyl-2-[(4-cyclopropylphenyl)methyl]-12-ethoxy-27-isobutyl-8-[2-[3-methoxy-4-(trifluoromethyl)phenyl]ethyl]-N,N,3′,3′,4,19,22,26,32,35-decamethyl-30-[(1S)-1-methylpropyl]-3,6,9,15,18,21,25,28,31,34,42-undecaoxo-spiro[1,4,7,10,16,19,22,26,29,32,35-undecazatricyclo[34.5.1.0^10,14]dotetracont-38-ene-17,1′-cyclobutane]-23-carboxamide] | AA (a compound having 20 or more is denoted as AA) | A (a compound having 10 or more and less than 20 is denoted as A) |
| CCO[C@@H]1C[C@H]2C(=O)NC3(CC(C)(C)C3)C(=O)N(C)[C@@H](C3CCCC3)C(=O)N(C)[C@H](C(=O)N(C)C)CC(=O)N(C)[C@@H](CC(C)C)C(=O)N[C@@H]([C@@H](C)CC)C(=O)N(C)CC(=O)N(C)[C@H]3C/C=C\CCN(C3=O)[C@@H](Cc3ccc(C(C)C)cc3)C(=O)N(C)CC(=O)N[C@@H](CCc3ccc(C(F)(F)F)c(OC)c3)C(=O)N2C1 [PP2692] | A (a compound having 10 or more and less than 20 is denoted as A) | A (a compound having 10 or more and less than 20 is denoted as A) |
| CCO[C@@H]1C[C@H]2C(=O)NC3(CC(C)(C)C3)C(=O)N(C)[C@@H](C3CCCC3)C(=O)N(C)[C@H](C(=O)N(C)C)CC(=O)N(C)[C@@H](CC(C)C)C(=O)N[C@@H]([C@@H](C)CC)C(=O)N(C)CC(=O)N(C)[C@H]3C/C=C\CCN(C3=O)[C@@H](Cc3ccc(OC)cc3)C(=O)N(C)CC(=O)N[C@@H](CCc3ccc(C(F)(F)F)c(OC)c3)C(=O)N2C1 [PP2693] | A (a compound having 10 or more and less than 20 is denoted as A) | B (a compound having 3 or more and less than 10 is denoted as B) |
| CCO[C@@H]1C[C@H]2C(=O)NC3(CC(C)(C)C3)C(=O)N(C)[C@@H](C3CCCC3)C(=O)N(C)[C@H](C(=O)N(C)C)CC(=O)N(C)[C@@H](CC(C)C)C(=O)N[C@@H]([C@@H](C)CC)C(=O)N(C)CC(=O)N(C)[C@H]3C/C=C\CCN(C3=O)[C@@H](Cc3ccc(C(C)=O)cc3)C(=O)N(C)CC(=O)N[C@@H](CCc3ccc(C(F)(F)F)c(OC)c3)C(=O)N2C1 [PP2694] | A (a compound having 10 or more and less than 20 is denoted as A) | B (a compound having 3 or more and less than 10 is denoted as B) |
| CCO[C@@H]1C[C@H]2C(=O)NC3(CC(C)(C)C3)C(=O)N(C)[C@@H](C3CCCC3)C(=O)N(C)[C@H](C(=O)N(C)C)CC(=O)N(C)[C@@H](CC(C)C)C(=O)N[C@@H]([C@@H](C)CC)C(=O)N(C)CC(=O)N(C)[C@H]3C/C=C\CCN(C3=O)[C@@H](Cc3ccc4c(c3)CCC4(F)F)C(=O)N(C)CC(=O)N[C@@H](CCc3ccc(C(F)(F)F)c(OC)c3)C(=O)N2C1 [PP2695] | A (a compound having 10 or more and less than 20 is denoted as A) | B (a compound having 3 or more and less than 10 is denoted as B) |
| CCOC[C@H]1C(=O)N[C@@H]([C@@H](C)CC)C(=O)N(C)CC(=O)N(C)[C@H]2C/C=C\CCN(C2=O)[C@@H](Cc2ccc(C)cc2F)C(=O)N(C)CC(=O)N[C@@H](CCc2ccc(C(F)(F)F)c(OC)c2)C(=O)N2C[C@@H](C)C[C@H]2C(=O)NC2(CC(C)(C)C2)C(=O)N(C)[C@@H](C2CCCC2)C(=O)N(C)[C@H](C(=O)N(C)CC)CC(=O)N1C [PP2697] | A (a compound having 10 or more and less than 20 is denoted as A) | A (a compound having 10 or more and less than 20 is denoted as A) |
| CCOC[C@H]1C(=O)N[C@@H]([C@@H](C)CC)C(=O)N(C)CC(=O)N(C)[C@H]2C/C=C\CCN(C2=O)[C@@H](Cc2ccc(C)c(F)c2)C(=O)N(C)CC(=O)N[C@@H](CCc2ccc(C(F)(F)F)c(OC)c2)C(=O)N2C[C@@H](C)C[C@H]2C(=O)NC2(CC(C)(C)C2)C(=O)N(C)[C@@H](C2CCCC2)C(=O)N(C)[C@H](C(=O)N(C)CC)CC(=O)N1C [PP2698] | A (a compound having 10 or more and less than 20 is denoted as A) | A (a compound having 10 or more and less than 20 is denoted as A) |
| CCOC[C@H]1C(=O)N[C@@H]([C@@H](C)CC)C(=O)N(C)CC(=O)N(C)[C@H]2C/C=C\CCN(C2=O)[C@@H](Cc2ccc(C(C)(F)F)cc2)C(=O)N(C)CC(=O)N[C@@H](CCc2ccc(C(F)(F)F)c(OC)c2)C(=O)N2C[C@@H](C)C[C@H]2C(=O)NC2(CC(C)(C)C2)C(=O)N(C)[C@@H](C2CCCC2)C(=O)N(C)[C@H](C(=O)N(C)CC)CC(=O)N1C [PP2699] | A (a compound having 10 or more and less than 20 is denoted as A) | B (a compound having 3 or more and less than 10 is denoted as B) |
| CCOC[C@H]1C(=O)N[C@@H]([C@@H](C)CC)C(=O)N(C)CC(=O)N(C)[C@H]2C/C=C\CCN(C2=O)[C@@H](Cc2ccc(C3CC3)cc2)C(=O)N(C)CC(=O)N[C@@H](CCc2ccc(C(F)(F)F)c(OC)c2)C(=O)N2C[C@@H](C)C[C@H]2C(=O)NC2(CC(C)(C)C2)C(=O)N(C)[C@@H](C2CCCC2)C(=O)N(C)[C@H](C(=O)N(C)CC)CC(=O)N1C [PP2700] | A (a compound having 10 or more and less than 20 is denoted as A) | B (a compound having 3 or more and less than 10 is denoted as B) |
| CCOC[C@H]1C(=O)N[C@@H]([C@@H](C)CC)C(=O)N(C)CC(=O)N(C)[C@H]2C/C=C\CCN(C2=O)[C@@H](Cc2ccc(C(C)C)cc2)C(=O)N(C)CC(=O)N[C@@H](CCc2ccc(C(F)(F)F)c(OC)c2)C(=O)N2C[C@@H](C)C[C@H]2C(=O)NC2(CC(C)(C)C2)C(=O)N(C)[C@@H](C2CCCC2)C(=O)N(C)[C@H](C(=O)N(C)CC)CC(=O)N1C [PP2701] | A (a compound having 10 or more and less than 20 is denoted as A) | A (a compound having 10 or more and less than 20 is denoted as A) |
